Experimental data taken from patent publication US12517130B2, “Isoindoline derivatives which bind to an ATP binding site” (NeoPhore Limited, priority 2020, dated 2026).
pIC50: −log10 of the molar value. Counter-ions that a name gives are not always drawn.

How the values were obtained:
[1] = molecular target: T1, recombinant N-terminal PMS2 (residues 1-365) (Homo sapiens, UniProt P54278); assay: Assay C: Fluorescence Polarisation Assay for PMS2 (displacement of Example 5 probe); format: binding; conditions: Assay Protocol C; 10 nM N-terminal PMS2, 5 nM Example 5 probe; FIG. 11
T1 construct: recombinant N-terminal PMS2 (residues 1-365) in assay buffer
T1 sequence (P54278 1-365): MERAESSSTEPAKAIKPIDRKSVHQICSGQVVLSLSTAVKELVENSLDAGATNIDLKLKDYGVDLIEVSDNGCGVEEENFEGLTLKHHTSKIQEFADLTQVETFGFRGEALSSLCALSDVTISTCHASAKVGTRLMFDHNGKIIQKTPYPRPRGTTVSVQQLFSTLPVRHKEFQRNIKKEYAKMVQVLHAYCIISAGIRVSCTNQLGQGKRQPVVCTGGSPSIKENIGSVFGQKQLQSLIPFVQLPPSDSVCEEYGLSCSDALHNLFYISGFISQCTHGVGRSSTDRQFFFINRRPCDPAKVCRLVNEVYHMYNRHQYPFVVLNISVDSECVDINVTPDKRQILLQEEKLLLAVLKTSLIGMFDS
Experimental: Assay C: Fluorescence Polarisation Assay for PMS2
Test compounds, as 10 mM DMSO stocks, were dispensed into a Black Fluotrac 200 384 well medium binding plate (Greiner Bio-One, item number 781076) using a Labcyte Echo acoustic liquid handler. For single point screening, test compounds were added to wells in columns 1-22 whilst DMSO was added to wells in columns 23 and 24 in order to normalise the plate. For potency determination, serial dilutions of test compounds were added to wells in columns 3-22 and DMSO volume was normalised across the plate.
20 μL of a 2× solution (20 nM) of recombinant N-terminal PMS2 (residues 1-365) in assay buffer (25 mM HEPES, pH 7.5, 250 mM NaCl, 10 mM MgCl2, 0.01% Triton X-100, 5 mM Dithiothreitol) was added to all wells in columns 2-23 for potency determination or columns 1-23 for single point screening. 20 μL assay buffer was added to all wells in columns 1 and 24 (column 24 only for single point screening) using a MultiDrop Combi (ThermoFisher). […]
Compound plates were centrifuged for 1 minute at 250×g and were incubated at room temperature for 1 hour before being read on a PheraStar FSX (fitted with 384-well aperture spoon and 540 590 590 FP optic module). The gain and focus were adjusted before each plate was read so that the polarisation of a no enzyme control (column 24) was equal to 35 mP. […]

[2] = molecular target: T2, recombinant N-terminal MLH1 (residues 15-340) (Homo sapiens, UniProt P40692); assay: Assay A: Fluorescence Polarisation Assay for MLH1 (displacement of Example 1 probe); format: binding; conditions: Assay Protocol A; 100 nM N-terminal MLH1, 5 nM Example 1 probe; FIG. 10
T2 construct: recombinant N-terminal MLH1 (residues 15-340) in assay buffer
T2 sequence (P40692 15-340): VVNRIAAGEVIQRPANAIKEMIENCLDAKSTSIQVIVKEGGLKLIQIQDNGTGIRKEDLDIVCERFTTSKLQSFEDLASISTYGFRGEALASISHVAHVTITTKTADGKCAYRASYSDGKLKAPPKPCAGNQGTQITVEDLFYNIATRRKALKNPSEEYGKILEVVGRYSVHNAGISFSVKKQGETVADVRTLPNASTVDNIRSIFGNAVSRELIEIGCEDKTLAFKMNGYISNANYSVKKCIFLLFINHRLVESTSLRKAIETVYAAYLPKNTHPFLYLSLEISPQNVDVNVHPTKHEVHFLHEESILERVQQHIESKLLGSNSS
Experimental: Assay A: Fluorescence Polarisation Assay for MLH1
Test compounds, as 10 mM DMSO stocks, were dispensed into a Black Fluotrac 200 384-well medium binding plate (Greiner Bio-One, item number 781076) using a Labcyte Echo acoustic liquid handler. Test compounds were added to wells in columns 1-22 whilst DMSO was added to wells in columns 23 and 24 in order to normalise the plate. 20 μL of a 2× solution (200 nM) of recombinant N-terminal MLH1 (residues 15-340) in assay buffer (25 mM HEPES, pH 7.5, 250 mM NaCl, 10 mM MgCl2, 0.01% Triton X-100, 5 mM Dithiothreitol) was added to all wells in columns 1-23 and 20 μL assay buffer was added to all wells in column 24 using a MultiDrop Combi (ThermoFisher). […] Compound plates were centrifuged for 1 minute at 250×g for 1 minute and were incubated at room temperature for 1 hour before being read on a PheraStar FSX (fitted with 384-well aperture spoon and 590 675 675 FP optic module). The gain and focus were adjusted before each plate was read so that the polarisation of a no enzyme control (column 24) was equal to 35 mP. […]

[3] = molecular target: T3, N-terminal domain of MLH1 (Homo sapiens, UniProt P40692); assay: Surface plasmon resonance binding to N-terminal domain of MLH1
T3 construct: by surface plasmon resonance to the N-terminal domain of MLH1
T3 sequence (P40692 15-340 limits assumed): T2 sequence (P40692 15-340)
Excerpt: (§1) These probes are therefore unsuitable for use as fluorescence polarisation screening tools.

MLH1 = molecular target: T4, MLH1 (Homo sapiens, UniProt P40692); assay: Fluorescence polarisation assay of commercially available ATP-derived fluorescent probes, according to the type of protocol exemplified; format: binding; conditions: substance used as the fluorescent probe
T4 sequence (P40692 15-340 limits assumed): T2 sequence (P40692 15-340)
Experimental: as §1
An 11 point 1 in 2 serial dilution of protein (either recombinant N-terminal PMS2 (residues 1-365) or recombinant N-terminal MLH1 (residues 15-340)) in assay buffer (25 mM HEPES, pH 7.5, 250 mM NaCl, 10 mM MgCl2, 0.01% Triton X-100, 5 mM Dithiothreitol) was constructed in a clear polypropylene plate (Greiner Bio-One, item number 784201). The top concentration of the serial dilution was 2 μM. The 12th concentration point was buffer only (no protein control).
The serial dilution was used as the 2× protein and 20 μL was added to a Black Fluotrac 200 384-well medium binding plate (Greiner Bio-One, item number 781076). Plates were centrifuged for 1 minute at 250×g and were incubated at room temperature for 30 minutes prior to the addition of 20 μL of 2× (either 5 nM or 2 nM) of probe in assay buffer (prepared from a 100 μM DMSO stock) with a MultiDrop Combi (ThermoFisher).
Compound plates were centrifuged for 1 minute at 250×g for 1 minute and were incubated at room temperature for 1 hour before being read on a PheraStar FSX (fitted with 384-well aperture spoon and appropriate FP module). The gain and focus were adjusted before each plate was read so that the polarisation of the no protein control was equal to 35 mP. Data was plotted and analysed in GraphPad Prism 8.1.0 (FIGS. 6-9).

pIC50 [1] | pIC50 [2] | binding by surface plasmon resonance [3] | signal in fluorescence polarisation assay (MLH1) | SMILES
6.75 | 4.97 |  |  | CC(C)c1cc(C(=O)N2Cc3ccc(CN4CCNCC4)cc3C2)c(O)cc1O [compound AB, (2,4-dihydroxy-5-isopropylphenyl)(5-(piperazin-1-ylmethyl)isoindolin-2-yl)methanone hydrochloride]
 |  | very weak binding | no signal | CC1=CC(C)=[N+]2C1=Cc1ccc(CNC(=O)CSP(=O)(O)OP(=O)(O)OP(=O)(O)OC[C@H]3O[C@@H](n4cnc5c(N)ncnc54)[C@H](O)[C@@H]3O)n1[B-]2(F)F [BODIPY-FL-ATP-gamma-S]
